Assay results reported in article PMC5047880, “Characterization of Linoleate 10-Hydratase of Lactobacillus plantarum and Novel Antifungal Metabolites” (Frontiers in Microbiology, 2016).

Experiments:
Assay in all cases: activity of apoenzyme after addition of FAD, LC-APPI-MS
Type in all cases: biochemical
Settings in all cases: 0.2 mM FAD, 4°C, 24 h; linoleic acid as substrate, MES pH 6.1
[1] = molecular target: T1, LAH of Lactobacillus reuteri (linoleate 10-hydratase, 10-LAH) (Limosilactobacillus reuteri, UniProt A0A1I9RYU8)
T1 construct: full length, 590 residues; His-tag from pET-28a(+) (NdeI/NotI); primers encode MYYSNGNY... and ...MEEQHLL
T1 sequence (A0A1I9RYU8 1-590): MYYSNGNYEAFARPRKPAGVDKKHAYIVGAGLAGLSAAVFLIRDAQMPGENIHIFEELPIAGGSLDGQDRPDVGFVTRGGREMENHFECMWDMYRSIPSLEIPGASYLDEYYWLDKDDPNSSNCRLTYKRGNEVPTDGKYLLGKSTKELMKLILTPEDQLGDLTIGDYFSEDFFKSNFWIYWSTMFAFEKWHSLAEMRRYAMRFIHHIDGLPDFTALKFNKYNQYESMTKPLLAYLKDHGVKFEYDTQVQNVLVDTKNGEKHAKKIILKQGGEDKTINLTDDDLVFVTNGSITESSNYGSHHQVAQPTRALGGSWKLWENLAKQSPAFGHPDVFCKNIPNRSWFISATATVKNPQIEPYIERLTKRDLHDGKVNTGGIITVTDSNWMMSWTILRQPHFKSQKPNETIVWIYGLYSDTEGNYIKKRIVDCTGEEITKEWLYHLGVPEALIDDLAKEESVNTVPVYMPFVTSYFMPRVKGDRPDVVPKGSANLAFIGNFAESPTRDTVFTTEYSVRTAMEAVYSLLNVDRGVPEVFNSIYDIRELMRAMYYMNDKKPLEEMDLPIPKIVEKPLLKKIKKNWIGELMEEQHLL

[2] = molecular target: T2, LAH of Lactobacillus hammesii (linoleate 10-hydratase, 10-LAH) (Levilactobacillus hammesii, UniProt A0A1I9RYV0)
T2 construct: full length, 564 residues; His-tag from pET-28a(+) (BamHI/HindIII); primers encode MVKTKAVM... and ...ATKRMFS
T2 sequence (A0A1I9RYV0 1-564): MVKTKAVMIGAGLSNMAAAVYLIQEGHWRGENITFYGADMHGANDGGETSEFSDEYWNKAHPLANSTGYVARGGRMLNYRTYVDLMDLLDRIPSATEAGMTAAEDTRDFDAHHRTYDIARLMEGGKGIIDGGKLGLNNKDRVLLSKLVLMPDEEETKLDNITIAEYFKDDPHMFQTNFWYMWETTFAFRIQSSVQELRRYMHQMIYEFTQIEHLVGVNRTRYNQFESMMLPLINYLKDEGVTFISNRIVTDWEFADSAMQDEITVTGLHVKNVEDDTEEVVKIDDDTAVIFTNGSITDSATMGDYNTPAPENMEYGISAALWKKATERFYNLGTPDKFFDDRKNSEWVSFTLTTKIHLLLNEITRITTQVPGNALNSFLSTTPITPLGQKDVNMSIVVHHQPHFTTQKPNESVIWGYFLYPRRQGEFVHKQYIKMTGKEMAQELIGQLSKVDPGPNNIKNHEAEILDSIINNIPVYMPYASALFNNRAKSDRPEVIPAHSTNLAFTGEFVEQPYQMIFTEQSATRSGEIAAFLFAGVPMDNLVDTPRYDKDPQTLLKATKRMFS

[3] = molecular target: T3, LAH of Lactobacillus plantarum (linoleate 10-hydratase, 10-LAH) (Lactiplantibacillus plantarum, UniProt A0A1I9RYU9)
T3 construct: full length, 564 residues; His-tag from pET-28a(+) (EcoRI/NotI); primers encode MVKSKAIM... and ...ATKKMFD
T3 sequence (A0A1I9RYU9 1-564): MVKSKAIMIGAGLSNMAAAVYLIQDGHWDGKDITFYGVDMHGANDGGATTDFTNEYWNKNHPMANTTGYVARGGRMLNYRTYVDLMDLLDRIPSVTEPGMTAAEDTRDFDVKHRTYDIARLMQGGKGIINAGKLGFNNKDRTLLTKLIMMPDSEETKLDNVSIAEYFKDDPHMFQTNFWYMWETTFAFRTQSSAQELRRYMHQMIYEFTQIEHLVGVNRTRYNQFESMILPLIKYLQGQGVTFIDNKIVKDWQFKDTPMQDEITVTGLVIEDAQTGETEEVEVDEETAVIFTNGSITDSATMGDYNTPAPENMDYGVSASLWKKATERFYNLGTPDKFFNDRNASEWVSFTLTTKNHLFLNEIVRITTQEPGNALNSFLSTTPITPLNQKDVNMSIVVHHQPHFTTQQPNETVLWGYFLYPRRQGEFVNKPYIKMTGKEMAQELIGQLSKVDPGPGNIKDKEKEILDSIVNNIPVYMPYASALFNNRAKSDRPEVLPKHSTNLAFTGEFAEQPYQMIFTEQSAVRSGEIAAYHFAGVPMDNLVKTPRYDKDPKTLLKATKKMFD

[4] = molecular target: T4, LAH of Lactobacillus spicheri (linoleate 10-hydratase, 10-LAH) (Levilactobacillus spicheri, UniProt A0A0F3RUK6)
T4 construct: gene lai; full length, 564 residues; His-tag from pET-28a(+) (EcoRI/NotI); primers encode MVKTKAVM... and ...ATKKMFS
T4 sequence (A0A0F3RUK6 1-564): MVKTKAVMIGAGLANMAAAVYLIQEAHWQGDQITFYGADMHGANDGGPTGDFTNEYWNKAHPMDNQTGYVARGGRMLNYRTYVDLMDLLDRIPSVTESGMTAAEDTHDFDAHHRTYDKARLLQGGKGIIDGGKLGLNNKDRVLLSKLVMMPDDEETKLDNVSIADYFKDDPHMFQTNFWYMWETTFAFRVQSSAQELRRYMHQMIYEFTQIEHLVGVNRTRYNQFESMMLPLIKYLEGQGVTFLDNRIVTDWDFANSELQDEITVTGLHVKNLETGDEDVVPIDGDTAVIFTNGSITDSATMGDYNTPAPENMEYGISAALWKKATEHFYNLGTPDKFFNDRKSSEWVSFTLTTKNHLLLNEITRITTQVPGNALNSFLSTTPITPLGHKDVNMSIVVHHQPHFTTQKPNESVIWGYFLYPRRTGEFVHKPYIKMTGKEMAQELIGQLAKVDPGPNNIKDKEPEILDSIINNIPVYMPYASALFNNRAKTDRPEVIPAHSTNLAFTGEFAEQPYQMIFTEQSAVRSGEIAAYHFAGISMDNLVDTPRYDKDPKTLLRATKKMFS

Cc1cc2nc3c(=O)[nH]c(=O)nc-3n(C[C@H](O)[C@H](O)[C@H](O)COP(=O)(O)OP(=O)(O)OC[C@H]3O[C@@H](n4cnc5c(N)ncnc54)[C@H](O)[C@@H]3O)c2cc1C [FAD]
activity of apoenzyme after addition of FAD, LC-APPI-MS [1]: The addition of cofactor FAD to apoenzyme was essential for activity
activity of apoenzyme after addition of FAD, LC-APPI-MS [2]: The addition of cofactor FAD to apoenzyme was essential for activity
activity of apoenzyme after addition of FAD, LC-APPI-MS [3]: The addition of cofactor FAD to apoenzyme was essential for activity
activity of apoenzyme after addition of FAD, LC-APPI-MS [4]: The addition of cofactor FAD to apoenzyme was essential for activity
